In patent publication US12398140B2, “Substituted pyrrolo [2,3-d]pyrimidines for treating familial dysautonomia” (PTC THERAPEUTICS, INC., priority 2019, dated 2025):

System: Elongator complex protein 1 (ELPI, also referred to as IKBKAP)
Assay: IKBKAP-HTRF assay (IKBKAP protein in lysates of FD patient-derived fibroblasts)
Format: cell-based, human
Details: FD patient-derived fibroblasts GM04589, 48 hours, 7-point concentration curve
Method: The assay is used for the quantitative determination of Elongator complex protein 1 (ELPI, also referred to as IKBKAP) concentration in cell lysates using the HTRF® (Homogeneous Time-Resolved Fluorescence) technology. IKBKAP is detected in a sandwich HTRF assay by use of an anti-IKAP antibody labeled with a donor and an anti-IKAP antibody labeled with an acceptor.
Cells were thawed and incubated in DMEM-10% FBS for 72 hours. Cells were trypsinized, counted, and re-suspended to a concentration of 50,000 cells/ml in DMEM-10% FBS. A 199 μL aliquot of the cell suspensions were plated at 10,000 cells per well in a 96 well microtiter plate and incubated for 3 to 5 hours. […] Test compounds were serially diluted 3.16-fold in 100% DMSO to generate a 7-point concentration curve. A 1 μL aliquot of 200× compound solution was transferred to cell-containing wells, and cells were incubated for 48 hours in a cell culture incubator (37° C., 5% CO2, 100% relative humidity). Triplicate samples were set up for each compound concentration. After 48 hours, the supernatant was removed from the cells and 50 μL of the 1×LB4 lysis buffer, containing protease inhibitors, was added to the cells and incubated with shaking at room temperature for 1 hour. A 36 μL aliquot of this lysate was subsequently transferred to the 384-well plate containing 4 μL of the antibody solution (1:50 dilution of anti IKAP d2 and anti-IKAP K(9+8) in detection buffer). The 384-well plate was then centrifuged for 1 minute to bring the solutions to the bottom of the plate and incubated overnight at 4° C. Fluorescence for each well of the plate at 665 nm and 620 nm was measured was on the EnVision plate reader (Perkin Elmer). The ΔF for each sample is calculated by:
[formula] wherein Signal is the normalized fluorescence for each sample well and Blank is the average normalized average fluorescence for the Blank control wells.
The maximum fold increase (MFI) in IKBKAP protein abundance for compounds of Formula (I) or a form thereof relative to the vehicle control are provided in Table 1. MFI was calculated by dividing the ΔF value for each sample well by the sample ΔF for the vehicle control wells.
The EC2x for IKBKAP protein expression obtained from the 7-point concentration curve generated for each test compound according to the protocol in Biological Example 1 are also provided in Table 1. The term “EC2x for IKBKAP protein expression” is defined as the concentration of test compound that is effective in producing two times the amount of IKBKAP protein in a FD patient cell compared to the amount produced from the DMSO vehicle control.

Row | Structure (SMILES) | EC2x for IKBKAP protein expression (concentration producing two times the amount of IKBKAP protein vs DMSO vehicle control) | MFI (maximum fold increase in IKBKAP protein abundance relative to the vehicle control)
1 | C[C@H](N)Cc1[nH]c2nc(Cl)nc(NCc3ccco3)c2c1Br.Cl [Cpd 19, 6-[(2S)-2-aminopropyl]-5-bromo-2-chloro-N-[(furan-2-yl)methyl]-7H-pyrrolo[2,3-d]pyrimidin-4-amine hydrochloride] | **** (between >0.005 μM and ≤0.02 μM is indicated by four stars (****)) | **** (between >3.9 and ≤4.9 is indicated by four stars (****))
2 | C[C@H](N)Cc1cc2c(NCc3ccncc3)nc(Cl)nc2[nH]1 [Cpd 20, 6-[(2S)-2-aminopropyl]-2-chloro-N-[(pyridin-4-yl)methyl]-7H-pyrrolo[2,3-d]pyrimidin-4-amine] | *** (between >0.02 μM and ≤0.5 μM is indicated by three stars (***)) | ***** (>4.9 is indicated by five stars (*****))
3 | CC[C@H](N)Cc1[nH]c2nc(Cl)nc(NCc3ccco3)c2c1Cl.Cl [Cpd 21, 6-[(2S)-2-aminobutyl]-2,5-dichloro-N-[(furan-2-yl)methyl]-7H-pyrrolo[2,3-d]pyrimidin-4-amine hydrochloride] | **** (between >0.005 μM and ≤0.02 μM is indicated by four stars (****)) | **** (between >3.9 and ≤4.9 is indicated by four stars (****))
4 | C[C@H](N)Cc1cc2c(NCc3nccs3)nc(Cl)nc2[nH]1.Cl [Cpd 22, 6-[(2S)-2-aminopropyl]-2-chloro-N-[(1,3-thiazol-2-yl)methyl]-7H-pyrrolo[2,3-d]pyrimidin-4-amine hydrochloride] | **** (between >0.005 μM and ≤0.02 μM is indicated by four stars (****)) | ***** (>4.9 is indicated by five stars (*****))
5 | C[C@H](N)Cc1c(Cl)c2c(NCc3ccco3)nc(Cl)nc2n1C.Cl [Cpd 23, 6-[(2S)-2-aminopropyl]-2,5-dichloro-N-[(furan-2-yl)methyl]-7-methyl-7H-pyrrolo[2,3-d]pyrimidin-4-amine hydrochloride] | **** (between >0.005 μM and ≤0.02 μM is indicated by four stars (****)) | ***** (>4.9 is indicated by five stars (*****))
6 | C[C@H](N)Cc1c(F)c2c(NCc3ccco3)nc(Cl)nc2n1C.Cl [Cpd 24, 6-[(2S)-2-aminopropyl]-2-chloro-5-fluoro-N-[(furan-2-yl)methyl]-7-methyl-7H-pyrrolo[2,3-d]pyrimidin-4-amine hydrochloride] | **** (between >0.005 μM and ≤0.02 μM is indicated by four stars (****)) | ***** (>4.9 is indicated by five stars (*****))
7 | C[C@H](N)Cc1cc2c(NCc3cccs3)nc(Cl)nc2[nH]1.Cl [Cpd 25, 6-[(2S)-2-aminopropyl]-2-chloro-N-[(thiophen-2-yl)methyl]-7H-pyrrolo[2,3-d]pyrimidin-4-amine hydrochloride] | **** (between >0.005 μM and ≤0.02 μM is indicated by four stars (****)) | ***** (>4.9 is indicated by five stars (*****))
8 | CC[C@H](N)Cc1cc2c(NCc3ccco3)nc(Cl)nc2[nH]1 [Cpd 26, 6-[(2S)-2-aminobutyl]-2-chloro-N-[(furan-2-yl)methyl]-7H-pyrrolo[2,3-d]pyrimidin-4-amine] | **** (between >0.005 μM and ≤0.02 μM is indicated by four stars (****)) | **** (between >3.9 and ≤4.9 is indicated by four stars (****))
9 | C[C@H](N)Cc1cc2c(NCc3ncco3)nc(Cl)nc2[nH]1.Cl [Cpd 27, 6-[(2S)-2-aminopropyl]-2-chloro-N-[(1,3-oxazol-2-yl)methyl]-7H-pyrrolo[2,3-d]pyrimidin-4-amine hydrochloride] | *** (between >0.02 μM and ≤0.5 μM is indicated by three stars (***)) | ***** (>4.9 is indicated by five stars (*****))
10 | CCCCc1c(C[C@H](C)N)[nH]c2nc(Cl)nc(NCc3ccco3)c12.Cl [Cpd 28, 6-[(2S)-2-aminopropyl]-5-butyl-2-chloro-N-[(furan-2-yl)methyl]-7H-pyrrolo[2,3-d]pyrimidin-4-amine hydrochloride] | * (An EC2x>1 μM is indicated by one star (*)) | * (An MFI≤1.9 is indicated by one star (*))
11 | CC(C)(C)[C@H](N)Cc1cc2c(NCc3ccco3)nc(Cl)nc2[nH]1.Cl [Cpd 29, 6-[(2R)-2-amino-3,3-dimethylbutyl]-2-chloro-N-[(furan-2-yl)methyl]-7H-pyrrolo[2,3-d]pyrimidin-4-amine hydrochloride] | *** (between >0.02 μM and ≤0.5 μM is indicated by three stars (***)) | **** (between >3.9 and ≤4.9 is indicated by four stars (****))
12 | C[C@H](N)Cc1cc2c(NCc3ccoc3)nc(Cl)nc2[nH]1.Cl [Cpd 30, 6-[(2S)-2-aminopropyl]-2-chloro-N-[(furan-3-yl)methyl]-7H-pyrrolo[2,3-d]pyrimidin-4-amine hydrochloride] | *** (between >0.02 μM and ≤0.5 μM is indicated by three stars (***)) | ***** (>4.9 is indicated by five stars (*****))
13 | C[C@H](N)Cc1cc2c(NCc3ccncc3F)nc(Cl)nc2[nH]1.Cl.Cl [Cpd 31, 6-[(2S)-2-aminopropyl]-2-chloro-N-[(3-fluoropyridin-4-yl)methyl]-7H-pyrrolo[2,3-d]pyrimidin-4-amine dihydrochloride] | **** (between >0.005 μM and ≤0.02 μM is indicated by four stars (****)) | ***** (>4.9 is indicated by five stars (*****))
14 | CC[C@H](C)[C@H](N)Cc1cc2c(NCc3ccco3)nc(Cl)nc2[nH]1.Cl [Cpd 32, 6-[(2R,3S)-2-amino-3-methylpentyl]-2-chloro-N-[(furan-2-yl)methyl]-7H-pyrrolo[2,3-d]pyrimidin-4-amine hydrochloride] | **** (between >0.005 μM and ≤0.02 μM is indicated by four stars (****)) | ***** (>4.9 is indicated by five stars (*****))
15 | Cc1c(C[C@H](C)N)[nH]c2nc(Cl)nc(NCc3ccco3)c12.Cl [Cpd 33, 6-[(2S)-2-aminopropyl]-2-chloro-N-[(furan-2-yl)methyl]-5-methyl-7H-pyrrolo[2,3-d]pyrimidin-4-amine hydrochloride] | ***** (≤0.005 μM is indicated by five stars (*****)) | ***** (>4.9 is indicated by five stars (*****))
16 | Cc1nc(NCc2ccco2)c2c(F)c(C[C@H](C)N)[nH]c2n1.Cl [Cpd 34, 6-[(2S)-2-aminopropyl]-5-fluoro-N-[(furan-2-yl)methyl]-2-methyl-7H-pyrrolo[2,3-d]pyrimidin-4-amine hydrochloride] | *** (between >0.02 μM and ≤0.5 μM is indicated by three stars (***)) | ***** (>4.9 is indicated by five stars (*****))
17 | Cc1c(C[C@H](C)N)n(C)c2nc(Cl)nc(NCc3ccco3)c12.Cl [Cpd 35, 6-[(2S)-2-aminopropyl]-2-chloro-N-[(furan-2-yl)methyl]-5,7-dimethyl-7H-pyrrolo[2,3-d]pyrimidin-4-amine hydrochloride] | **** (between >0.005 μM and ≤0.02 μM is indicated by four stars (****)) | ***** (>4.9 is indicated by five stars (*****))
